Legend:
[1] = system: NCI-H358 cell line; test: In vitro cell proliferation assay (CCK-8) in NCI-H358 cell line; format: cell-based; details: Homo sapiens, 72 hours; for inhibition at 3 µM: TC1: Test Concentration of 3 uM; for inhibition at 10 µM: TC2: Test Concentration of 10 uM
Description: (§1) Growth inhibition assays is to be carried out using 10% FBS supplemented media. Cells are to be seeded at a desired concentration of 1,500-6,000 cells/well in a 96-well plate. Test compounds at a concentration range from 1 to 30 uM will be added after 24 hours. Growth will be assessed using the CCK-8 kit for measuring reduction at 0 h (prior to the addition of the test compound) and 72 hours after the addition of test compound. Absorbance read on a BIO-RAD iMark Microplate or any equivalent microplate reader at a wavelength of 450 nm. Data was analysed and percent inhibition due to the test compound compared to the control is calculated accordingly.

[2] = system: MIAPACA-2 cell line; test: In vitro cell proliferation assay (CCK-8) in MIAPACA-2 cell line; format: cell-based; details: Homo sapiens, MIA PaCa-2, 72 hours; for inhibition at 3 µM: TC1: Test Concentration of 3 uM; for inhibition at 10 µM: TC2: Test Concentration of 10 uM
Description: as §1

| SMILES | inhibition at 3 µM [1] | inhibition at 10 µM [1] | inhibition at 3 µM [2] | inhibition at 10 µM [2] |
| --- | --- | --- | --- | --- |
| C=CC(=O)N1CCN(c2nc(OC[C@@H]3CCCN3C)c(C#N)c3c2CCN(c2cccc4cccc(Cl)c24)C3)CC1CC#N (mixture of isomers) [Ex 23, 1-(4-acryloyl-3-(cyanomethyl)piperazin-1-yl)-6-(8-chloronaphthalen-1-yl)-3-(((S)-1-methylpyrrolidin-2-yl)methoxy)-5,6,7,8-tetrahydro-2,6-naphthyridine-4-carbonitrile] | 75 to 100% | 75 to 100% | 75 to 100% | 75 to 100% |
| C=CC(=O)N1CCN(c2nc(OC[C@@H]3CCCN3C)c(C#N)c3c2CCN(c2cccc4cccc(Cl)c24)C3)CC1CC#N (single isomer, unassigned) [Ex 24] | 75 to 100% | 75 to 100% | 75 to 100% | 75 to 100% |
| C=C(F)C(=O)N1CCN(c2nc(OC[C@@H]3CCCN3C)c(C#N)c3c2CCN(c2cccc4cccc(Cl)c24)C3)C[C@H]1CC#N [Ex 28, 6-(8-chloronaphthalen-1-yl)-1-((R)-3-(cyanomethyl)-4-(2-fluoroacryloyl)piperazin-1-yl)-3-(((S)-1-methylpyrrolidin-2-yl)methoxy)-5,6,7,8-tetrahydro-2,6-naphthyridine-4-carbonitrile] | 50 to 75% | 75 to 100% | 75 to 100% | 75 to 100% |
| C=CC(=O)N1CCN(c2nc(N3CCCCC3)c(C#N)c3c2CCN(Cc2ccccc2)C3)CC1 [Ex 42, 1-(4-acryloylpiperazin-1-yl)-6-benzyl-3-(piperidin-1-yl)-5,6,7,8-tetrahydro-2,6-naphthyridine-4-carbonitrile] |  | 25 to 50% |  |  |
| C=CC(=O)N1CCN(c2nc(-c3ccnc(F)c3)c(C#N)c3c2CCN(Cc2ccccc2)C3)CC1 [Ex 43, 1-(4-acryloylpiperazin-1-yl)-6-benzyl-3-(2-fluoropyridin-4-yl)-5,6,7,8-tetrahydro-2,6-naphthyridine-4-carbonitrile] |  | 25 to 50% |  |  |
| C=CC(=O)N1CCN(c2nc(N3CCCCC3)c(C#N)c3c2CCN(c2cccc4ccccc24)C3)CC1 [Ex 44, 1-(4-acryloylpiperazin-1-yl)-6-(naphthalen-1-yl)-3-(piperidin-1-yl)-5,6,7,8-tetrahydro-2,6-naphthyridine-4-carbonitrile] |  | ≤ 25% |  |  |
| C=CC(=O)N1CCN(c2nc(OCC3CCCN3C)c(C#N)c3c2CCN(Cc2ccccc2)C3)CC1 (centres unmarked) [Ex 45, 1-(4-acryloylpiperazin-1-yl)-6-benzyl-3-((1-methylpyrrolidin-2-yl)methoxy)-5,6,7,8-tetrahydro-2,6-naphthyridine-4-carbonitrile] |  | ≤ 25% |  |  |
| C=CC(=O)N1CCN(c2nc(N3CCN(C(=O)C=C)CC3)c3c(c2C#N)CN(c2cccc4ccccc24)CC3)CC1 [Ex 46, 1,3-bis(4-acryloylpiperazin-1-yl)-6-(naphthalen-1-yl)-5,6,7,8-tetrahydro-2,6-naphthyridine-4-carbonitrile] |  | 75 to 100% |  |  |
| C=CC(=O)N1CCN(c2nc(N3CCN(C(=O)C=C)CC3)c3c(c2C#N)CN(c2cccc4sccc24)CC3)CC1 [Ex 47, 1,3-bis(4-acryloylpiperazin-1-yl)-6-(benzo[b]thiophen-4-yl)-5,6,7,8-tetrahydro-2,6-naphthyridine-4-carbonitrile] |  | 75 to 100% |  |  |
| C=CC(=O)N1CCN(c2nc(N3CCN(C(=O)CC)CC3)c(C#N)c3c2CCN(c2cccc4ccccc24)C3)CC1 [Ex 48, 1-(4-acryloylpiperazin-1-yl)-6-(naphthalen-1-yl)-3-(4-propionylpiperazin-1-yl)-5,6,7,8-tetrahydro-2,6-naphthyridine-4-carbonitrile] |  | 75 to 100% |  |  |
| C=CC(=O)N1CCN(c2nc(N3CCN(C(=O)CC)CC3)c3c(c2C#N)CN(c2cccc4ccccc24)CC3)CC1 [Ex 49, 3-(4-acryloylpiperazin-1-yl)-6-(naphthalen-1-yl)-1-(4-propionylpiperazin-1-yl)-5,6,7,8-tetrahydro-2,6-naphthyridine-4-carbonitrile] |  | 75 to 100% |  |  |
| C=CC(=O)N1CCN(c2nc(N3CCOCC3)c(C#N)c3c2CCN(c2cccc4ccccc24)C3)CC1 [Ex 50, 1-(4-acryloylpiperazin-1-yl)-3-morpholino-6-(naphthalen-1-yl)-5,6,7,8-tetrahydro-2,6-naphthyridine-4-carbonitrile] |  | 75 to 100% |  |  |
| C=CC(=O)N1CCN(c2nc(N3CCN(C(C)=O)CC3)c(C#N)c3c2CCN(c2cccc4ccccc24)C3)CC1 [Ex 51, 3-(4-acetylpiperazin-1-yl)-1-(4-acryloylpiperazin-1-yl)-6-(naphthalen-1-yl)-5,6,7,8-tetrahydro-2,6-naphthyridine-4-carbonitrile] |  | 50 to 75% |  |  |
| C=CC(=O)N1CCN(c2nc(N3CC(C)OC(C)C3)c(C#N)c3c2CCN(c2cccc4ccccc24)C3)CC1 (centres unmarked) [Ex 52, 1-(4-acryloylpiperazin-1-yl)-3-(2,6-dimethylmorpholino)-6-(naphthalen-1-yl)-5,6,7,8-tetrahydro-2,6-naphthyridine-4-carbonitrile] |  | 75 to 100% |  | 75 to 100% |
| C=CC(=O)N1CCN(c2nc(N3CCN(S(C)(=O)=O)CC3)c(C#N)c3c2CCN(c2cccc4ccccc24)C3)CC1 [Ex 53, 1-(4-acryloylpiperazin-1-yl)-3-(4-(methylsulfonyl)piperazin-1-yl)-6-(naphthalen-1-yl)-5,6,7,8-tetrahydro-2,6-naphthyridine-4-carbonitrile] |  | 75 to 100% |  | 75 to 100% |
| C=CC(=O)N1CCN(c2nc(N3CCN(CC)CC3)c(C#N)c3c2CCN(c2cccc4ccccc24)C3)CC1 [Ex 54, 1-(4-acryloylpiperazin-1-yl)-3-(4-ethylpiperazin-1-yl)-6-(naphthalen-1-yl)-5,6,7,8-tetrahydro-2,6-naphthyridine-4-carbonitrile] |  | 75 to 100% |  | 75 to 100% |
| C=CC(=O)N1CCN(c2nc(OC[C@@H]3CCCN3C)c(C#N)c3c2CCN(c2cccc4ccccc24)C3)CC1 [Ex 55, (S)-1-(4-acryloylpiperazin-1-yl)-3-((1-methylpyrrolidin-2-yl)methoxy)-6-(naphthalen-1-yl)-5,6,7,8-tetrahydro-2,6-naphthyridine-4-carbonitrile] |  | 75 to 100% |  | 75 to 100% |
| C=CC(=O)N1CCN(c2ncc(C#N)c3c2CCN(c2cccc4ccccc24)C3)CC1 [Ex 56, 1-(4-acryloylpiperazin-1-yl)-6-(naphthalen-1-yl)-5,6,7,8-tetrahydro-2,6-naphthyridine-4-carbonitrile] |  | ≤ 25% |  |  |
| C=C(F)C(=O)N1CCN(c2nc(N3CCN(C(=O)CC)CC3)c(C#N)c3c2CCN(c2cccc4ccccc24)C3)CC1 [Ex 57, 1-(4-(2-fluoroacryloyl)piperazin-1-yl)-6-(naphthalen-1-yl)-3-(4-propionylpiperazin-1-yl)-5,6,7,8-tetrahydro-2,6-naphthyridine-4-carbonitrile] |  | 75 to 100% |  |  |

— patent US20240300942A1, “SMALL MOLECULES FOR TREATEMENT OF CANCER” (VRise Therapeutics Inc., priority 2021, published 2024)
